Key:
[1] = target: T1, cystathionine β-synthase (MtbCbs, Rv1077) (Mycobacterium tuberculosis, UniProt P9WP51); assay: biochemical; format: binding; parameters: gene cbs; full-length WT MtbCbs, C-terminal 6×His
[2] = target: T1, cystathionine β-synthase (MtbCbs, Rv1077); assay: cryo-EM ([…] Å) with SAM + Ser; cystathionine formation by acid-ninhydrin and LC-MS/MS; format: binding; parameters: gene cbs; full-length WT MtbCbs
[3] = target: T1, cystathionine β-synthase (MtbCbs, Rv1077); assay: acid-ninhydrin and LC-MS/MS cystathionine formation; lead acetate kinetics with Cys; format: biochemical; parameters: gene cbs; full-length WT MtbCbs
[4] = target: T1, cystathionine β-synthase (MtbCbs, Rv1077); format: biochemical; parameters: gene cbs; full-length WT MtbCbs
SEC + SEC-MALS = target: the molecule itself; assay: SEC + SEC-MALS

C[S+](CC[C@H](N)C(=O)[O-])C[C@H]1O[C@@H](n2cnc3c(N)ncnc32)[C@H](O)[C@@H]1O (some centres unmarked) [S-adenosylmethionine]
Kd [1]: ~128 µM

N[C@@H](CO)C(=O)O [L-serine]
cryo-EM (4.25 Å) with SAM + Ser; cystathionine formation by acid-ninhydrin and L [2]: formation of external aldimine/aminoacrylate at the active site, which indicates association of Ser with PLP

NC(CCS)C(=O)O [L-Hcys]
acid-ninhydrin and LC-MS/MS cystathionine formation; lead acetate kinetics with [3]: MtbCbs produces Cysth from Ser + Hcys and Cys + Hcys

N[C@@H](CS)C(=O)O [L-cysteine]
lead acetate H2S assay with steady-state kinetics; LC-MS/MS of lanthionine [4]: lead-acetate assay confirmed that MtbCbs generates H2S using Cys or Hcys + Cys but not from Hcys alone

B1: Mycobacterium tuberculosis cystathionine β-synthase (MtbCbs, Rv1077), wild type (enzyme)
chain: MRIAQHISELIGGTPLVRLNSVVPDGAGTVAAKVEYLNPGGSSKDRIAVKMIEAAEASGQLKPGGTIVEPTSGNTGVGLALVAQRRGYKCVFVCPDKVSEDKRNVLIAYGAEVVVCPTAVPPHDPASYYSVSDRLVRDIDGAWKPDQYANPEGPASHYVTTGPEIWADTEGKVTHFVAGIGTGGTITGAGRYLKEVSGGRVRIVGADPEGSVYSGGAGRPYLVEGVGEDFWPAAYDPSVPDEIIAVSDSDSFDMTRRLAREEAMLVGGSCGMAVVAALKVAEEAGPDALIVVLLPDGGRGYMSKIFNDAWMSSYGFLRSRLDGSTEQSTVGDVLRRKSGALPALVHTHPSETVRDAIGILREYGVSQMPVVGAEPPVMAGEVAGSVSERELLSAVFEGRAKLADAVSAHMSPPLRMIGAGELVSAAGKALRDWDALMVVEEGKPVGVITRYDLLGFLSEGAGRR
modifications: PLP bound to K44 (internal aldimine)
notes: also called WT MtbCbs; native MtbCbs
stoichiometry N (SEC + SEC-MALS): 4
